Data: BindingDB's records for doi:10.1016/j.bmcl.2019.126715 (Merck, 2020)

Target: Proto-oncogene tyrosine-protein kinase Src (Homo sapiens) (UniProt P12931)
Assay: Inhibition of recombinant full length human SRCN1 expressed in baculovirus expression system using tyrosine-2 peptide as substrate incubated for 60 mins in presence of ATP by Z'-LYTE assay

Sequence of Proto-oncogene tyrosine-protein kinase Src (Homo sapiens) (P12931 whole entry, looked up): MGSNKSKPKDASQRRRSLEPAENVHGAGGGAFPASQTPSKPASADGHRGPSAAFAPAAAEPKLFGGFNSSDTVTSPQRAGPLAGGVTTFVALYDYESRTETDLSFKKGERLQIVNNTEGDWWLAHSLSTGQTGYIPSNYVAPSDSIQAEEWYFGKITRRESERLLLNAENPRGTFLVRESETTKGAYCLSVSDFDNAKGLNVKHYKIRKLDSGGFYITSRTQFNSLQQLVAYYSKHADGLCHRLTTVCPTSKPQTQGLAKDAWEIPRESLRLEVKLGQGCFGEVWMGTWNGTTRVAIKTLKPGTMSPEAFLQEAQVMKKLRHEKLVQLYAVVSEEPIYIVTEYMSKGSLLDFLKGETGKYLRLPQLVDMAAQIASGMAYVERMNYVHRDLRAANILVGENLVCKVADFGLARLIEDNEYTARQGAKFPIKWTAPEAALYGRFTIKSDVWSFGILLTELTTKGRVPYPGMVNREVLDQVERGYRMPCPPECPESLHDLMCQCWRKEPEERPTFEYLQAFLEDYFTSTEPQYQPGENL

`C[C@@H]1C[C@H]1C(=O)N1CCN(c2cnc(C#N)c(-c3cnn(C)c3)n2)C[C@H]1C` was tested, and the IC50 was greater than 100 µM.
